{"source": "patent US20250171419A1", "about": "“NOVEL NICOTINAMIDE PHOSPHORIBOSYLTRANSFERASE INHIBITORS AND USES THEREOF” (Heidelberg Pharma Research GmbH, priority 2023, published 2025)", "key": {"[1]": {"experiment": "Acid hydration stability (TFA, 37° C)", "assay_type": "physicochemical", "conditions": "for tendency of cyanoguanidine group to hydration and degradation: pH values below 2, formation of guanylurea intermediates", "source_text": "Since the lysosomal pH is acidic and contains numerous hydrolases, NAMPT inhibitors bearing cyanoguanidines may therefore be degraded in the lysosome. […] The product was confirmed by mass spectrometry and NMR analysis. The inhibitor C42a was designed as an alternative to cyanoguanidine compounds containing urea as non-hydratable group."}, "[2]": {"assay_type": "in vitro ADME, human", "method": "The test compound was incubated at a concentration of 17.7 μM in a mixture of human liver lysosomal extract (tebu-bio, Seikisui Xenotech, Ref: H0610.L) and 1× catabolism buffer (tebu-bio, Seikisui Xenotech, Ref: K5200) for […] at 37° C. Samples were taken at 0, 2, 4, 24, 48, 72, 120, and 168 hours. Control samples without lysosomal extract were also set up under the same conditions as the test sample. All measurements and samples were taken in duplicate.\nTo measure the reaction, the compound was quenched by adding 380 μL of internal standard buffer (30 ng/mL of internal standard in ACN) to 20 μL of the sample. An amanitin-stable isotope-labelled analogue was used as the internal standard.\n22 μL of the quenched sample was analysed using UPLC-MS-MS QTrap 5500 (Column: Waters ACQUITY UPLC BEH Amide, […], 2.1×100 mm, product code: 186004801). This assay was related to compound 113. Compound 113 was expected to be the main degradation compound after lysosomal enzymatic digestion and was used as a reference for the detection of catabolites after digestion in the HPLC-MS analysis.\nThe ion fragments detection method was multiple reaction monitoring (MRM). In this method, the mass is measured by a tandem mass spectrometer where the initial molecular ion is selected as initial mass. […]"}, "L540 CD30+ cell line": {"test_system": "L540 CD30+ cell line", "experiment": "Cytotoxicity in L540 CD30+ cell line, CellTiter-Glo 2.0 readout after 96 h", "assay_type": "cell-based", "conditions": "FIG. 10 C", "protocol": "L540 CD30^+ cell lines were used for the study. 2×10^3 Cells were added to each well of a 96-well plate, but for the blank wells. Test compounds and controls were added to their corresponding lanes in a 7-step 1:5 dilution series starting with the concentration of 1×10^−5 M for non-conjugated inhibitors and 1×10^−7 M for ADCs and free monoclonal antibody. The dilution scheme was prepared in triplicates for each sample. Cells were incubated at 37° C. at 5% CO2 for 96 h in an evaporation chamber. Readout was performed using CellTiter-Glo 2.0 assay, according to the kit instructions (Promega; Cat #G9242).\n2×10^3 Cells were added to each well of a 96-well plate, but for the blank wells. […] Cells were incubated at 37° C. at 5% CO2 for 96 h in an evaporation chamber. Readout was performed using CellTiter-Glo 2.0 assay, according to the kit instructions (Promega; Cat #G9242).\n2×10^3 Cells were added to each well of a 96-well plate, but for the blank wells. […] Cells were incubated at 37° C. at 5% CO2 for 96 h in an evaporation chamber. Readout was performed using CellTiter-Glo® 2.0 assay, according to kit instructions (Promega; Cat #G9242)."}, "[3]": {"test_system": "murine renal cell carcinoma model RENCA", "conditions": "cited from earlier work"}, "solid tumors": {"test_system": "solid tumors", "conditions": "cited from earlier work"}, "[4]": {"test_system": "human breast and lung cancer cell line-derived in vivo models", "conditions": "cited from earlier work"}}, "note": "Structures can show the parent of a compound that is named as a salt."}
{"molecule": "N#C/N=C(\\NCCCCC1(O)CCN(C(=O)c2cccc(N)c2)CC1)Nc1cccnc1", "note": "[C22a, (E)-1-(4-(1-(3-aminobenzoyl)-4-hydroxypiperidin-4-yl)butyl)-2-cyano-3-(pyridin-3-yl)guanidine]", "values": [{"measurement": "tendency of cyanoguanidine group to hydration and degradation", "setting": "[1]", "value": "tend towards hydration and degradation"}]}
{"molecule": "N#C/N=C(\\NCCCCC1CCN(C(=O)c2cccc(N)c2)CC1)Nc1cccnc1", "note": "[compound 36, (E)-1-(4-(1-(3-aminobenzoyl)piperidin-4-yl)butyl)-2-cyano-3-(pyridin-3-yl)guanidine]", "values": [{"measurement": "hydration of the cyanoguanidine moiety under acid pH", "setting": "[1]; acid pH", "value": "undergoes hydration of the cyanoguanidine moiety to guanylurea"}, {"measurement": "acid hydration reaction involving TFA, pH above 2", "setting": "[1]; pH values above 2, after 48 hours at 37° C", "value": "the reaction did not occur"}, {"measurement": "acid hydration reaction involving TFA, pH below 2", "setting": "[1]; pH values below 2, within 24 hours at 37° C", "value": "guanylurea 113 was obtained in excellent yield"}, {"measurement": "tendency of cyanoguanidine group to hydration and degradation", "setting": "[1]", "value": "tend towards hydration and degradation"}, {"measurement": "degradation in the absence of lysosomal enzymes", "setting": "[2]", "value": "no degradation is observed"}, {"measurement": "degradation versus generation of the hydrated product 113", "setting": "[2]", "value": "inversely correlates"}]}
{"molecule": "Nc1cccc(C(=O)N2CCC(O)(CCCCNC(=O)N3Cc4ccccc4C3)CC2)c1", "note": "[C42a, N-(4-(1-(3-aminobenzoyl)-4-hydroxypiperidin-4-yl)butyl)isoindoline-2-carboxamide TFA salt]", "values": [{"measurement": "time stable under the conditions that triggered the hydration of 36", "setting": "[1]; identical conditions as those that triggered the hydration of 36", "value": "more than 2 weeks"}, {"measurement": "hydration at pH values below 2", "setting": "[1]; pH values below 2 at 37° C for more than 2 weeks", "value": "no hydration"}]}
{"molecule": "NC(=O)/N=C(\\NCCCCC1CCN(C(=O)c2cccc(N)c2)CC1)Nc1cccnc1", "note": "[compound 113, (E)-1-(((4-(1-(3-aminobenzoyl)piperidin-4-yl)butyl)amino)(pyridin-3-ylamino)methylene)urea]", "values": [{"measurement": "toxicity in L540 cells compared to inhibitor 36", "setting": "L540 CD30+ cell line", "value": "significantly reduced toxicity"}]}
{"molecule": "O=C(/C=C/c1cccnc1)NCCCCC1CCN(C(=O)c2ccccc2)CC1", "note": "[Daporinad, (E)-N-[4-(1-benzoylpiperidin-4-yl)butyl]-3-(pyrldine-3-yl)-acrylamide]", "values": [{"measurement": "in vivo efficacy", "setting": "[3]", "value": "In vivo efficacy of daporinad was shown"}]}
{"molecule": "N#CNC(=Nc1ccncc1)NCCCCCCOc1ccc(Cl)cc1", "note": "[CHS-828, N-[6-(4-chlorophenoxy)hexyl]-N′-cyano-N″-4-pyridinyl-guanidine]", "values": [{"measurement": "observed responses in the clinical trials", "setting": "solid tumors", "value": "stable disease"}, {"measurement": "cytotoxic effects in vitro and in vivo", "setting": "[4]", "value": "highly cytotoxic effects"}]}
